The values below come from article PMC11449769, “Structure-based virtual screening towards the discovery of novel thrombin inhibitors with Anti-HCC activities” (Frontiers in Chemistry, 2024).

“Also recorded” adds a separate entry of the source. Where a name gives a salt, the structure may show the parent alone. Read-outs that look alike come from different tables or passages of the source.

One data set relates to platelets. Put plainly: Thrombin-induced platelet aggregation in vitro. It counts as cell-based, rats. The conditions noted are these: drugs 3 mg/mL; thrombin 0.2 U/mL. As for the experimental part:
Blood was collected from rats and centrifuged for 10mins to obtain platelet-rich plasma, which was centrifuged again to collected platelets. The platelets were resus-pended and diluted to a concentration of 5 × 10^5/mL. PRP ([…]), and thrombin ([…]) were added to the platelet suspension in each group and incubated at 37°C. After incubation for 120 s, the reaction solution was well-mixed, and the same amount of thrombin ([…]) was added to a final concentration of 0.2 U/mL.

In data set [1] the target is T1, thrombin (Homo sapiens, UniProt P00734).
T1 construct: a light chain A composed of 39 amino acid residues and a heavy chain B composed of 259 amino acid residues; purchased China National Institute for the Control of Pharmaceutical and Biological Products
Put plainly: In vitro thrombin inhibition assay (fluorogenic substrate Ac-FVR-AMC). It counts as biochemical. As for the experimental part:
Lyophilized thrombin, which was purchased from China National Institute for the Control of Pharmaceutical and Biological Products, was reconstituted (5.4 μg/mL), added to the diluted solution, and pre-incubated at 37°C for 10 min.
sample: initial velocity of compound group; VDMSO: initial velocity of blank group, treated with DMSO alone; Inhibition rate (%) = 100/[1 + 10 (LogIC50−X)h], h represents Hill coefficient.

Data set [2] has as its target T1, thrombin. Put plainly: Thrombin time. The following applies: drugs 3 mg/mL, thrombin 0.2 U/mL.
Data set [3] relates to Hep3B, HepG2, HCCLM3 and HUh7 cells. Put plainly: Thrombin-induced accelerated proliferation of HCC cells (MTS). It counts as cell-based. The following applies: 0.5 μM drug, 0.5 U/mL thrombin; for thrombin-induced accelerated proliferation of tumor cells: 12 and 36 h, 4 liver cancer cell lines. As for the experimental part: Cell lines Hep3B, HepG2, HCCLM3 and HUh7 were purchased from Shanghai Biolaf Biotechnology Co., Ltd., and certified by short tandem repeat profiling and mycoplasma and cell vitality testing. The proliferation rate was determined using a cell proliferation assay kit (TOPSCIENCE, C0005). Briefly, cells were seeded in 96-well plates at a concentration of 10,000 cells/well. MTS was added and incubated at 37°C for 2 h. The absorbance was measured at a wavelength of 490 nm. Three independent experiments were per-formed for each assay.

In a further data set the test system is HepG2 tumor. Put plainly: HepG2 tumor model in BALB/c nude mice. The following applies: 28 days.
The next data set concerns BALB/c nude mice. Put plainly: Single oral dose tolerance in BALB/c nude mice. It counts as in vivo. The following applies: single oral administration of 500 mg/kg, 24 h.
Setting [4] is: thrombin 5.4 μg/mL, substrate 5 μM, 37°C, read-out: IC50.

By IC50 is commonly meant the concentration that gives 50% inhibition.

Procedure for HepG2 tumor: 20,000 HepG2 cells were injected into the fat pad of each female Balb/c mouse. The long and short diameters of the tumor were measured using a caliper. Medication was started when a rumor size of 100 mm^3 was reached. Sorafenib, ZXX-4, and sorafenib combined with ZXX-4 were administered for 28 days. The body weight and tumor size of the mice were measured twice a week. The mice were sacrificed after 28 days of treatment, the tumor weight was measured, and the number of metastases was counted by Indian ink staining of the lung.

Consider `Fc1ccc(Cl)c(COc2cccc3onc(Nc4cccnc4)c23)c1` [ZXX-5, SMS2-IN-2], for which the platelet aggregation rate result in the data set on platelets is “less than 50%”. On thrombin [1] (setting [4]), the IC50 stood at 45 ± 10 nM. Also, the “thrombin time (in words)” value at thrombin [2] is reported as “significantly prolonged”. For the same molecule, the “thrombin-induced accelerated proliferation of tumor cells” value in data set [3] was “reduced to different degrees”.
As to `C=C(c1ccccc1OCc1cccc(Cl)c1)n1ccnc1` [ZXX-11, CROCONAZOLE], in the data set with platelets, the platelet aggregation rate result is “less than 50%”. Besides, the IC50 on thrombin [1] amounted to 72 ± 20 nM. Also, the “thrombin time (in words)” value at thrombin [2] is “significantly prolonged”. For the same molecule, the “thrombin-induced accelerated proliferation of tumor cells” value in data set [3] is “reduced to different degrees”.
As for `NCCOc1cc(C(=O)Nc2cc(OCCN)c3ccccc3n2)nc(C(=O)Nc2cc(OCCN)c3ccccc3n2)c1` [ZXX-20, Pyridostatin Trihydrochloride], the IC50 on thrombin [1] (setting [4]) came to 98 ± 15 nM.
As to `CCCCCCOC(=O)N=C(N)c1ccc(NCc2nc3cc(C(=O)N(CCC(=O)OCC)c4ccccn4)ccc3n2C)cc1` [dabigatran etexilate, reference compound], the platelet aggregation rate entry in the data set on platelets is “less than 50%”. Also, in data set [3], the “thrombin-induced accelerated proliferation of tumor cells” value is “reduced to different degrees”.
On to `CNC(=O)c1cc(Oc2ccc(NC(=O)Nc3ccc(Cl)c(C(F)(F)F)c3)cc2)ccn1` [sorafenib, reference compound], for which, in the data set on HepG2 tumor (ZXX-4 50 mg/kg/day and/or sorafenib 30 mg/kg/day, oral), the tumor weight entry is “slightly better than that of ZXX-4”.
Turning to “C-Reactive Protein (CRP) 201–206 acetate [ZXX-17]”, the platelet aggregation rate entry in the data set on platelets is given as “less than 50%”. In the data set with thrombin [1] (setting [4]), the IC50 worked out at 52 ± 9 nM. Further, at thrombin [2], the “thrombin time (in words)” value is “significantly prolonged”. Moreover, in data set [3], the “thrombin-induced accelerated proliferation of tumor cells” value is “reduced to different degrees”.
Consider LSKL [ZXX-2], for which the platelet aggregation rate result in the data set on platelets is reported as “less than 50%”. Moreover, the IC50 in the data set with thrombin [1] (setting [4]) came to 68 ± 12 nM. Moreover, the “thrombin time (in words)” value on thrombin [2] is recorded as “significantly prolonged”. Moreover, the “thrombin-induced accelerated proliferation of tumor cells” value in data set [3] is given as “reduced to different degrees”.
Regarding Saralasin acetate [ZXX-1], the IC50 in the data set with thrombin [1] (setting [4]) came to 175 ± 18 nM.
Regarding “[Sarl, Ile8]-Angiotensin II acetate [ZXX-4]”, in the data set with platelets, the platelet aggregation rate entry is “less than 50%” and the “platelet aggregation rate compared with dabigatran etexilate” value is given as “not significant”. In addition, in the data set with thrombin [1] (setting [4]), the IC50 worked out at 23 ± 5 nM. Further, the “thrombin time (in words)” value at thrombin [2] was “significantly prolonged”. Further, the thrombin time at thrombin [2] (180 s = upper limit of detection) turned out to be 180 s. In addition, in data set [3], the “relative activity on thrombin-induced proliferation” value is listed as “highest activity, which was comparable to dabigatran etexilate” and the “thrombin-induced accelerated proliferation of tumor cells” value is reported as “reduced to different degrees”. In addition, the “survival after single dose” value with BALB/c nude mice is “survived”. Moreover, in the data set with HepG2 tumor (50 mg/kg/day oral), the HepG2 tumor growth entry is “inhibited HepG2 tumor growth”. Further, in the data set on HepG2 tumor (ZXX-4 50 mg/kg/day and/or sorafenib 30 mg/kg/day, oral, Indian ink staining), the “number of lung metastatic nodules” value is on record as “com-parable to that of sorafenib; also recorded: reduced tumor metastasis”. In addition, the “effect on the efficacy of sorafenib” value in the data set on HepG2 tumor (ZXX-4 50 mg/kg/day with sorafenib 30 mg/kg/day, oral) is “enhanced”.
